Assays:
R7 in Jurkat cells = test: Electron microscopy of viral particle distribution; assay type: cell-based, HIV; settings: R7 co-transfection, day 6 versus day 14
Excerpt: FIG. 4A is a composite of diagrams showing ELISA analysis of p24 concentration in Jurkat cells (panel A), HEK293 cells (panel B), THP-1 Monocytes (panel C) and U937 monocytes (panel D). FIG. 4B is a composite of confocal microscope pictures showing blocking of p24 release in Jurkat cells by SMRwt peptide (panel A) but not by SMRrmt peptide (panel B). FIG. 4C is a composite of confocal and electron microscope pictures showing viral particle distribution in Jurkat cells at day 6 post-transfection with R7 and SMRwt peptide (panel A-1) or with R7 and SMRmt peptide (panel B-1). FIG. 4D is a composite of confocal and electron microscope pictures showing viral particle distribution in Jurkat cells at day 14 post-transfection with R7 and SMRwt peptide (panel A-2) or with R7 and SMRmt peptide (panel B-2), FIG. 4E is a composite of confocal and electron microscope pictures showing viral particle distribution in subcellular structures in Jurkat cells at day 6 post-transfection with R7 and SMRwt peptide (panel A-1) or with R7 and SMRmt peptide (panel B-1) in Jurkat cells and at day 14 post-transfection with R7 and SMRwt peptide (panel A-2) or with R7 and SMRmt peptide (panel B-2) in Jurkat cells.
FIGS. 4C-4E are electron microscopic pictures showing Jurkat cells transfected with R7/SMRwt or […] at day 6 (FIG. 4C) and day 14 (FIG. 4D) post transfection. […]

R7; Magi/CXCR4 cells = test: Magi assay of viral infectivity, supernatants of THP-1 monocytes; assay type: cell-based, HIV; settings: supernatant from transfected THP-1 monocytes
Method: Magi/CXCR4 cells were exposed to 48 hour conditioned supernatants from Jurkat cells, HEK293 cells, THP-1 monocytes, or U937 monocytes transfected with either R7 viral DNA/SMRwt peptide or R7 viral DNA/SMRmt peptide. These cells were then fixed and stained with X-Gal. […] Cells productively infected with R7 are easily visualized under light microscopy by their blue nuclear staining. Magnification ×20. […] This is indicative of virus in the conditioned supernatant from the R7/negative control peptide treated cells and no virus in conditioned supernatant from the R7/antagonist treated cells.
These Magi cultures were quantitated for blue staining cells. The data was plotted as a function of time post-transfection. […] This is possibly due to antagonism of trafficking of viral component(s) to the cytoplasmic membrane. Ultimately this would shutdown the HIV infection and block progression to AIDS.

H-VGFPVAAVGFPVDYKDDDDK-OH [SMRwt]
release of virus as measured by EM (R7 in Jurkat cells): delays release of virus from infected cells
numbers of infected Magi cells as a function of time post-transfection (R7; Magi/CXCR4 cells): significantly reduced
